Holding throughout (format): cell-based, mouse
The subject of assay [1] is Hh signaling in NIH 3T3 cells overexpressing GLI2 (HA-Gli2ΔN). Nature of the assay: RT-qPCR of Gli1 in NIH 3T3 cells expressing Gli2ΔN (epistasis study). The conditions noted are these: 3T3 cells with forced expression of HA-Gli2ΔN. An excerpt: Epistasis studies were next performed to determine where in the hedgehog pathway CK2 acts. The effect of TBB was examined: (i) in NIH 3T3s stimulated with SAG, a SMO agonist, (ii) in Sufu−/− mouse embryonic fibroblasts (MEF), and (iii) in NIH 3T3 cells overexpressing GLI2 (FIG. 3d-3f).
Sufu^−/− MEFs (conditional deletion of exons 4-8) were kindly provided by Pao-Tien Chang (UCSF). SAG (S7779), GDC-0449 (Vismodegib, S1082) and CX-4945 (Silmitasertib, S2248) was purchased from SelleckChem.com. TBB was purchased from EMD (218697). Shh-N conditional medium was made using a HEK 293 cell line that stably secretes ShhN as previously described. Myc-GL12-DN (17649, pCS2-MT-GLI2-deltaN) plasmid was purchased from Addgene (Cambridge, Mass., USA). […]
NIH3T3s or SUFU−/− MEFs were plated in 6 well plates at 400,000 cells/well in 10% FBS media constituted of DMEM (Invitrogen11960-069) supplemented with 10% FBS (Hyclone Labs SH30070.02), pen/strep (Life Technologies 15140-122), sodium pyruvate (Invitrogen 11360-070) and glutamax (Invitrogen 35050-061). […] RNA was quantified on a nanodrop spectrophotometer (nanoddrop technologies ND-2000C). Transcript quantification was performed using a TaqMan RNA-to-Ct 1-Step Kit (Life technologies, 4392656) and the Applied Biosystems 7500 RT-PCR system as per the manufacturer's instructions. […]
(Real-time PCR tracks product formation cycle by cycle.)

The test system of assay [2] is MB cell lines (MB55, MB21, MB53). Nature of the assay: Cell viability of MB cell lines (CellTiter-Glo). The settings on record: multiple MB cell lines derived from Ptch1+/− and Ptch1+/−; Trp53−/− mice. As to the method: Ptch+/−MB cell lines MB55 and MB21 were kindly gifted from Dr. Rosalind Segal (Dana Farber Cancer Institute, Harvard Medical School) and Ptch^+/−; p53^−/− MB53 cells were kindly gifted from Charles Rudin (Memorial Sloan-Kettering Cancer Center). All cell lines were validated for high Gli activity. Cell viability was assessed using CellTiter-Glo (G7573, Promega, WI, USA) according to the manufacturers instructions. Cells were plated at 10000 cells/well in 96-well plates, treated with drugs as indicated and data was collected on a TECAN Infinite 200 plate reader.
For orientation: In ATP-based viability assays light output follows the ATP content of the culture.

In assay [3] the test system is Medulloblastoma cell lines (MB53, MB55 and MB21 cells). Nature of the assay: Acquired resistance in medulloblastoma cell lines. The conditions noted are these: TBB 50 uM. As to the method:
Medulloblastoma cell lines (MB53, MB55 and MB21 cells) were cultured in Neurobasal (Life Technologies 10888-022)+B27 supplement (Invitrogen 17504044)+DMSO (0.1%), CX-4945 (10 uM) or TBB (50 uM). […] Primer sequences are provided in supplemental table 5.

The subject of a further assay is Hh signaling in GNPs. The experiment in a line: Transcript levels in GNPs following Hh stimulation.

“Also recorded” adds a separate entry of the source.

Turning to `Brc1c(Br)c(Br)c2[nH]nnc2c1Br` [TBB, 4,5,6,7-tetrabromo-2H-benzotriazole], the “Gli1 mRNA levels” value in assay [1] is listed as “inhibited; also recorded: dose dependent loss of Gli1 expression”. The cell viability entry in assay [2] is given as “decreased; also recorded: dose dependent tumoricidal effects”. Also, the “surviving cells after 2 weeks of culture with drug” value in assay [3] was “MB55 TBB treated (50 uM) cells remained”. For the same compound, in the assay with Hh signaling in GNPs, the Gli1 transcript levels entry is “no change”, the Gli2 transcript levels entry was “effective at decreasing” and the Ptch transcript levels entry is given as “effective at decreasing”.

These data come from patent publication US10213449B2, “Compositions and methods for treating medulloblastoma” (The Board of Trustees of the Leland Stanford Junior …, priority 2016, dated 2019).
